Measurements: EP4631959A2, “NOVEL MINIGASTRIN-DERIVED CHOLECYSTOKININ 2 RECEPTOR BINDING MOLECULES FOR IMAGING AND TARGETED RADIOTHERAPY” (priority 2022, dated 2024)
Where two headings read alike, the source gives them in different places. Starred links: 1 amine or outer side, 2 acyl side, 3 side chain; linkers in the order of their positions; H or OH if unused. Non-standard residues stand in square brackets, D forms with d. Residues, ends and D or L forms follow the SMILES beside them. *: point of attachment. X5 = O=C(O)CN1CCN(CC(=O)O)CCN([C@@H](CCC(=O)*)C(=O)O)CCN(CC(=O)O)CC1; X2 = O=C(O)CN1CCN(CC(=O)O)CCN([C@H](CCC(=O)*)C(=O)O)CCN(CC(=O)O)CC1; Benzoyl(4-SiFtBu2) = CC(C)(C)[Si](F)(c1ccc(C(=O)*)cc1)C(C)(C)C; DOTA = O=C(O)CN1CCN(CC(=O)O)CCN(CC(=O)*)CCN(CC(=O)O)CC1; d(γGlu) = O=C(O)[C@@H](CCC(=O)[*:2])N[*:1]; Bip = N[C@@H](Cc1ccc(-c2ccccc2)cc1)C(=O)O; 1Nal = N[C@@H](Cc1cccc2ccccc12)C(=O)O; 2Nal = N[C@@H](Cc1ccc2ccccc2c1)C(=O)O; PEG5 = NCCOCCOCCOCCOCCOCCC(=O)O; NMeNle = CCCC[C@H](NC)C(=O)O; PEG4 = NCCOCCOCCOCCOCCC(=O)O; Nle = CCCC[C@H](N)C(=O)O; Dap = NC[C@H](N)C(=O)O

Target: T1, CCK-2R (Rattus norvegicus, UniProt P30553)
T1 construct: The CCK-2R expressing rat pancreatic tumor cells AR4-2J; host or cells: AR4-2J rat pancreatic tumor cells
T1 sequence (P30553 1-452): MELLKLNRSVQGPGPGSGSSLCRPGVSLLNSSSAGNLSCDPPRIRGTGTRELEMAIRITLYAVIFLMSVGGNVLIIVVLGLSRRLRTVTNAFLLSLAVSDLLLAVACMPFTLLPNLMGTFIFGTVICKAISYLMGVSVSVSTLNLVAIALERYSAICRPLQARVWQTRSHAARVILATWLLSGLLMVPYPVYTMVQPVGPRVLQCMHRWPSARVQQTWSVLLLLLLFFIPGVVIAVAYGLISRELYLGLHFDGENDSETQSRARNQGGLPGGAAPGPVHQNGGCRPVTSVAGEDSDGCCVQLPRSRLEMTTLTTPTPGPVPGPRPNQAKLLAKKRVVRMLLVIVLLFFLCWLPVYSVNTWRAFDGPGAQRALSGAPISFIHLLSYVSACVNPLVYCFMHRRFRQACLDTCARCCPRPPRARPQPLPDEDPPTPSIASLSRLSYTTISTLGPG
Experiment: Determination of IC50: CCK-2R affinity on AR4-2J cells, competition with [^177Lu]Lu-DOTA-PP-F11N
Type: binding
Method: AR4-2J cells were harvested 24 ± 2 h before the experiment and seeded in 24-well plates (2.0 × 10^5 cells in 1 mL/well). After removal of the nutrient medium (RPMI 1640, 5 mM L-Gln, 5 mL non-essential amino acids (100×), 10% FCS), the cells were washed once with 500 µL PBS. Thereafter, 200 µL nutrient medium (5% BSA, v/v) were added. Next, 25 µL per well of solutions containing either nutrient medium (5% BSA, v/v) as control or the respective compound in increasing concentration (10^-10 - 10^-4 M), were added with subsequent addition of 25 µL [^177Lu]Lu-DOTA-PP-F11N (0.3 pmol/well).
All experiments were performed in triplicate for each concentration. After 3 h incubation at 37 °C, the experiment was terminated by removal of the medium and consecutive rinsing with 300 µL PBS. The media of both steps were combined in one fraction and represent the amount of free radiolabeled reference. Afterwards, the cells were lysed with 300 µL of 1 M NaOH for at least 15 min and united with the 300 µL NaOH of the following washing step. Quantification of bound and free radiolabeled reference was accomplished in a γ-counter. IC50 determination for each conjugate was repeated twice.

[1] = AR4-2J cells, ^natGa-labeled, read-out: IC50 [nM] (n = 3), ^natGa-labeled
[2] = AR4-2J cells, references ^natLu-labeled, other peptides without chelator, read-out: IC50 [nM] (n = 3)
[3] = AR4-2J cells, ^natLu-labeled, read-out: IC50 [nM] (n = 3), ^natLu-labeled

Row | IC50 [2] | SMILES | also measured
1 | 4.5 ± 0.6 nM | CCCC[C@@H](C(=O)N[C@@H](CC(=O)O)C(=O)N[C@@H](Cc1ccccc1)C(N)=O)N(C)C(=O)[C@@H](N)Cc1c[nH]c2ccccc12 [H-Trp-(N-Me)Nle-Asp-Phe-NH2] (H-W[NMeNle]DF-NH2) | –
2 | 18.8 ± 0.5 nM | CCCC[C@@H](C(=O)N[C@@H](CC(=O)O)C(=O)N[C@@H](Cc1c[nH]c2ccccc12)C(N)=O)N(C)C(=O)[C@@H](N)Cc1c[nH]c2ccccc12 [H-Trp-(N-Me)Nle-Asp-Trp-NH2] (H-W[NMeNle]DW-NH2) | –
3 | 466 ± 88 nM | CCCC[C@H](NC(=O)[C@@H](N)Cc1c[nH]c2ccccc12)C(=O)N[C@@H](CC(=O)O)C(=O)N[C@@H](Cc1ccccc1)C(N)=O [H-Trp-Nle-Asp-Phe-NH2] (H-W[Nle]DF-NH2) | –

The next lines start with the molecule.

Row | SMILES | IC50 [2] | also measured
4 | CCCC[C@@H](C(=O)N[C@@H](CC(=O)O)C(=O)N[C@@H](Cc1cccc2ccccc12)C(N)=O)N(C)C(=O)[C@H](Cc1c[nH]c2ccccc12)NC(=O)CCOCCOCCOCCOCCNC(=O)CC[C@@H](NC(=O)CC[C@H](C(=O)O)N1CCN(CC(=O)O)CCN(CC(=O)O)CCN(CC(=O)O)CC1)C(=O)O [(R)-DOTAGA-CCK-66, (R)-DOTAGA-γ-glu-(PEG)3-Trp-(N-Me)Nle-Asp-1-Nal-NH2] ({X2-d(γGlu)-PEG4}-W[NMeNle]D[1Nal]-NH2) | – | IC50 [1]: 16 ± 2.1 nM
5 | CCCC[C@@H](C(=O)N[C@@H](CC(=O)O)C(=O)N[C@@H](Cc1cccc2ccccc12)C(N)=O)N(C)C(=O)[C@H](Cc1c[nH]c2ccccc12)NC(=O)CCOCCOCCOCCOCCNC(=O)CC[C@@H](NC(=O)CC[C@@H](C(=O)O)N1CCN(CC(=O)O)CCN(CC(=O)O)CCN(CC(=O)O)CC1)C(=O)O [(S)-DOTAGA-CCK-66, (S)-DOTAGA-γ-glu-(PEG)3-Trp-(N-Me)Nle-Asp-1-Nal-NH2] ({X5-d(γGlu)-PEG4}-W[NMeNle]D[1Nal]-NH2) | – | IC50 [1]: 17.9 ± 2.7 nM
6 | CCCC[C@H](NC(=O)[C@H](Cc1c[nH]c2ccccc12)NC(=O)CNC(=O)[C@H](Cc1ccc(O)cc1)NC(=O)[C@H](C)NC(=O)CC[C@@H](N)C(=O)O)C(=O)N[C@@H](CC(=O)O)C(=O)N[C@@H](Cc1ccc(-c2ccccc2)cc1)C(N)=O [CCK-38, H-γ-glu-Ala-Tyr-Gly-Trp-Nle-Asp-Bip-NH2] ({d(γGlu)}-AYGW[Nle]D[Bip]-NH2) | > 1000 nM | –
7 | CCCC[C@H](NC(=O)[C@H](Cc1c[nH]c2ccccc12)NC(=O)CNC(=O)[C@H](Cc1ccc(O)cc1)NC(=O)[C@H](C)NC(=O)CC[C@@H](N)C(=O)O)C(=O)N[C@@H](CC(=O)O)C(=O)N[C@@H](CNC(=O)c1ccc([Si](F)(C(C)(C)C)C(C)(C)C)cc1)C(N)=O [CCK-48, H-γ-glu-Ala-Tyr-Gly-Trp-Nle-Asp-Dap(SiFA)-NH2] ({d(γGlu)}-AYGW[Nle]D[Dap](Benzoyl(4-SiFtBu2))-NH2) | – | IC50: > 10000 nM
8 | CSCC[C@H](NC(=O)[C@H](Cc1c[nH]c2ccccc12)NC(=O)CNC(=O)[C@H](Cc1ccc(O)cc1)NC(=O)[C@H](C)NC(=O)[C@@H](CCC(=O)O)NC(=O)[C@@H](CCC(=O)O)NC(=O)[C@@H](CCC(=O)O)NC(=O)[C@@H](CCC(=O)O)NC(=O)[C@@H](CCC(=O)O)NC(=O)[C@@H](CCC(=O)O)NC(=O)CN1CCN(CC(=O)O)CCN(CC(=O)O)CCN(CC(=O)O)CC1)C(=O)N[C@@H](CC(=O)O)C(=O)N[C@@H](Cc1ccccc1)C(N)=O [CP04, DOTA-glu^1-glu^2-glu^3-glu^4-glu^5-glu^6-Ala^7-Tyr^8-Gly^9-Trp^10-Met^11-Asp^12-Phe^13-NH2, reference compound] | 11.2 ± 0.2 nM | –
9 | CCCC[C@@H](C(=O)N[C@@H](CC(=O)O)C(=O)N[C@@H](Cc1cccc2ccccc12)C(N)=O)N(C)C(=O)[C@H](Cc1c[nH]c2ccccc12)NC(=O)CCOCCOCCOCCOCCOCCNC(=O)CN1CCN(CC(=O)O)CCN(CC(=O)O)CCN(CC(=O)O)CC1 [DOTA-CCK-50, DOTA-(PEG)4-Trp-(N-Me)Nle-Asp-1-Nal-NH2] ({DOTA-PEG5}-W[NMeNle]D[1Nal]-NH2) | – | IC50 (text values without printed unit, ^natLu-labeled, read-out: IC50): 8.84 ± 1.25 nM
10 | CCCC[C@@H](C(=O)N[C@@H](CC(=O)O)C(=O)N[C@@H](Cc1cccc2ccccc12)C(N)=O)N(C)C(=O)[C@H](Cc1c[nH]c2ccccc12)NC(=O)CNC(=O)CNC(=O)CNC(=O)CNC(=O)CN1CCN(CC(=O)O)CCN(CC(=O)O)CCN(CC(=O)O)CC1 [DOTA-CCK-55, DOTA-(Gly)4-Trp-(N-Me)Nle-Asp-1-Nal-NH2] ({DOTA}-GGGGW[NMeNle]D[1Nal]-NH2) | – | IC50 [3]: 8.5 ± 1.2 nM
11 | CCCC[C@@H](C(=O)N[C@@H](CC(=O)O)C(=O)N[C@@H](Cc1cccc2ccccc12)C(N)=O)N(C)C(=O)[C@H](Cc1c[nH]c2ccccc12)NC(=O)CNC(=O)CN1CCN(CC(=O)O)CCN(CC(=O)O)CCN(CC(=O)O)CC1 [DOTA-CCK-58, DOTA-Gly-Trp-(N-Me)Nle-Asp-1-Nal-NH2] ({DOTA}-GW[NMeNle]D[1Nal]-NH2) | – | IC50 [3]: 98.9 ± 8.4 nM
12 | CCCC[C@@H](C(=O)N[C@@H](CC(=O)O)C(=O)N[C@@H](Cc1cccc2ccccc12)C(N)=O)N(C)C(=O)[C@H](Cc1c[nH]c2ccccc12)NC(=O)CNC(=O)CNC(=O)[C@H](C)NC(=O)CNC(=O)CN1CCN(CC(=O)O)CCN(CC(=O)O)CCN(CC(=O)O)CC1 [DOTA-CCK-61, DOTA-Gly-Ala-(Gly)2-Trp-(N-Me)Nle-Asp-1-Nal-NH2] ({DOTA}-GAGGW[NMeNle]D[1Nal]-NH2) | – | IC50 [3]: 9.7 ± 1.7 nM
13 | CCCC[C@H](NC(=O)[C@H](Cc1c[nH]c2ccccc12)NC(=O)CNC(=O)[C@H](Cc1ccc(O)cc1)NC(=O)[C@H](C)NC(=O)[C@@H](CCC(=O)O)NC(=O)[C@@H](CCC(=O)O)NC(=O)[C@@H](CCC(=O)O)NC(=O)[C@@H](CCC(=O)O)NC(=O)[C@@H](CCC(=O)O)NC(=O)[C@@H](CCC(=O)O)NC(=O)CN1CCN(CC(=O)O)CCN(CC(=O)O)CCN(CC(=O)O)CC1)C(=O)N[C@@H](CC(=O)O)C(=O)N[C@@H](Cc1ccccc1)C(N)=O [DOTA-PP-F11N, DOTA-glu^1-glu^2-glu^3-glu^4-glu^5-glu^6-Ala^7-Tyr^8-Gly^9-Trp^10-Nle^11-Asp^12-Phe^13-NH2, reference compound] | – | IC50: 12.8 ± 2.8 nM
14 | CCCC[C@@H](C(=O)N[C@@H](CC(=O)O)C(=O)N[C@@H](Cc1cccc2ccccc12)C(N)=O)N(C)C(=O)[C@H](Cc1c[nH]c2ccccc12)NC(=O)CNC(=O)[C@H](Cc1ccc(O)cc1)NC(=O)[C@H](C)NC(=O)CC[C@@H](NC(=O)CN1CCN(CC(=O)O)CCN(CC(=O)O)CCN(CC(=O)O)CC1)C(=O)O [DOTA-γ-MGS5, DOTA-γ-glu^6-Ala^7-Tyr^8-Gly^9-Trp^10-(N-Me)Nle^11-Asp^12-1-Nal^13-NH2, reference compound] ({DOTA-d(γGlu)}-AYGW[NMeNle]D[1Nal]-NH2) | 4.9 ± 0.8 nM | –
15 | CCCC[C@@H](C(=O)N[C@@H](CC(=O)O)C(=O)N[C@@H](Cc1ccc2ccccc2c1)C(N)=O)N(C)C(=O)[C@@H](N)Cc1c[nH]c2ccccc12 [H-Trp-(N-Me)Nle-Asp-2-Nal-NH2] (H-W[NMeNle]D[2Nal]-NH2) | 102 ± 9 nM | –
16 | CCCC[C@@H](C(=O)N[C@@H](CC(=O)O)C(=O)N[C@@H](Cc1ccc(O)cc1)C(N)=O)N(C)C(=O)[C@@H](N)Cc1c[nH]c2ccccc12 [H-Trp-(N-Me)Nle-Asp-Tyr-NH2] (H-W[NMeNle]DY-NH2) | 5.7 ± 0.5 nM | –
17 | CCCC[C@H](NC(=O)[C@@H](N)Cc1c[nH]c2ccccc12)C(=O)N[C@@H](CC(=O)O)C(=O)N[C@@H](Cc1cccc2ccccc12)C(N)=O [H-Trp-Nle-Asp-1-Nal-NH2] (H-W[Nle]D[1Nal]-NH2) | 297 ± 16 nM | –
